Experimental data published in patent US20040266802A1, “Tricyclic analgesics” (priority 1999, published 2004).
Counter-ions that a name gives are not always drawn. Like-named read-outs stand apart in the source and are kept apart here.

Columns and labels:
[1] = test system: Na+ channels; experiment: 22Na+ influx into SK-N-SH neuroblastoma cells under veratridine stimulation; type: cell-based
[2] = test system: Chronic Hyperalgesia Induced by PGE2 in Rats; experiment: Analgesic activity on chronic hyperalgesia induced by PGE2 in rats (Randall and Selitto test); type: in vivo; details: Rattus norvegicus, sc, 0.5 h; Sprague-Dawley rats, 10 mg/kg s.c., 30 min before measuring the pain threshold, compared with vehicle controls
Experimental: Analgesic Activity on Chronic Hyperalgesia Induced by PGE2 in Rats
The test consists in determining the analgesic effect of the test compound in rats by the Randall and Selitto test, in which chronic hyperalgesia has been triggered by intraplantar injection of PGE2 over 4 days into a leg, according to a protocol adapted from Nakamura-Craig et al (Pain, 63: 33-37. 1995).
The study is carried out on batches of 120-140 g Sprague-Dawley rats to which 100 ng of PGE2 is administered in a volume of 100 μl by the intraplantar route, for 4 consecutive days twice a day; this causes chronic hyperalgesia in the leg from the 5th day, for at least one week. On the day of the test, in the morning, the threshold of reaction to pain is checked by the Randall and Selitto test, and animals whose threshold is ψ100 arbitrarily defined units are selected. In the afternoon, the measurement is repeated after prior administration by the s.c. route of a solution of the test compound; this administration is carried out 30 min before measuring the pain threshold. For each batch, the analgesic activity (%) is calculated from the means of the thresholds measured before and after treatment, as compared with that of the control animals, who received only the vehicle.

[3] = target: Na+ channel; details: rat cerebral cortex synaptosomes, 10 nM [3H]batrachotoxin, 90 min at 25° C.; read-out: [3H] BTX assay: Na+ channel binding Ki
[4] = human SK-N-SH cells, veratridine-induced influx, 10 min at 37° C.; read-out: 22Na influx IC50

Row | SMILES | melting point [°C] | IC50 [1, 4] [nM] | inhibition in vivo at 10 mg/kg [2] [%] | also measured
1 | O=C1c2ccccc2CCC12CCNCC2 (as salt: hydrochloride) | 235 |  |  | 
2 | O=C1c2ccccc2CCC12CCN(CCc1ccccc1)CC2 (as salt: hydrochloride) | > 275 |  |  | 
3 | O=C1c2ccccc2CCC12CCN(CC1CC1)CC2 (as salt: hydrochloride) [Example 2, 1′-cyclopropylmethyl-3,4-Dihydro-1-oxospiro[naphthalene-2(1H),4′-piperidine]] | 243 |  |  | 
4 | O=C1c2ccccc2CCC12CCN(CC1CCC1)CC2 (as salt: hydrochloride) [Example 3, 1′-cyclobutylmethyl-3,4-Dihydro-1-oxospiro[naphthalene-2(1H),4′-piperidine]] | 235 |  |  | 
5 | O=C1c2ccccc2CCC12CCN(CC1CCCCC1)CC2 (as salt: hydrochloride) [Example 4, 1′-cyclohexylmethyl-3,4-Dihydro-1-oxospiro[naphthalene-2(1H),4′-piperidine]] | 265 |  |  | 
6 | O=C1c2ccccc2CCC12CCN(CCC1CC1)CC2 (as salt: hydrochloride) [Example 6, 1′-cyclopropylethyl-3,4-Dihydro-1-oxospiro[naphthalene-2(1H),4′-piperidine]] | 244 |  |  | 
7 | O=C1c2ccccc2CCC12CCN(C/C=C/c1ccccc1)CC2 (as salt: hydrochloride) [Example 7, 1′-cinnamyl-3,4-Dihydro-1-oxospiro[naphthalene-2(1H),4′-piperidine]] | 228 |  |  | 
8 | O=C1c2ccccc2CCC12CCN(CCC(c1ccccc1)c1ccccc1)CC2 (as salt: hydrochloride) [Example 8, 1′-(3,3-diphenylpropyl)-3,4-Dihydro-1-oxospiro[naphthalene-2(11H),4′-piperidine]] | 257 |  |  | 
9 | Cc1cc(C)c2c(c1)C(=O)C1(CC2)CCN(CC2CC2)CC1 (as salt: hydrochloride) [Example 9, 1′-(cyclopropylmethyl)-3,4-Dihydro-5,7-dimethyl-1-oxospiro[naphthalene-2(1H),4′-piperidine]] | > 260 |  |  | 
10 | COc1ccc2c(c1)CCC1(CCN(CC3CC3)CC1)C2=O (as salt: hydrochloride) [Example 10, 1′-(cyclopropylmethyl)-3,4-Dihydro-6-methoxy-1-oxospiro[naphthalene-2(1H),4′-piperidine]] | > 255 |  |  | 
11 | COc1cccc2c1CCC1(CCN(CC3CC3)CC1)C2=O (as salt: hydrochloride) [Example 11, 1′-(cyclopropylmethyl)-3,4-Dihydro-5-methoxy-1-oxospiro[naphthalene-2(1H),4′-piperidine]] | 244 |  |  | 
12 | O=C1c2ccccc2CCC12CCN(CC1CC1)CC2 [Example 2, 1′-cyclopropylmethyl-3,4-Dihydro-1-oxospiro[naphthalene-2(1H),4′-piperidine]] |  | 10700 | 49 | 
13 | O=C1c2ccccc2CCC12CCN(CCC1CC1)CC2 [Example 6, 1′-cyclopropylethyl-3,4-Dihydro-1-oxospiro[naphthalene-2(1H),4′-piperidine]] |  | 3400 | 67 | 
14 | O=C1c2ccccc2CCC12CCN(C/C=C/c1ccccc1)CC2 [Example 7, 1′-cinnamyl-3,4-Dihydro-1-oxospiro[naphthalene-2(1H),4′-piperidine]] |  | 940 | 57 | 
15 | O=C1c2ccccc2CCC12CCN(CCC(c1ccccc1)c1ccccc1)CC2 [Example 8, 1′-(3,3-diphenylpropyl)-3,4-Dihydro-1-oxospiro[naphthalene-2(11H),4′-piperidine]] |  | 970 | 47 | 
16 | COc1ccc2c(c1)CCC1(CCN(CC3CC3)CC1)C2=O [Example 10, 1′-(cyclopropylmethyl)-3,4-Dihydro-6-methoxy-1-oxospiro[naphthalene-2(1H),4′-piperidine]] |  | 30000 | 100 | 
17 | O=C1c2ccccc2CCC12CCN(CCCc1ccccc1)CC2 [Example 33] |  |  | 81 | IC50 ([1]; read-out: 22Na influx IC50; human SK-N-SH cells, veratridine-induced influx, 10 min at 37° C.): 1200 nM; Ki [3]: 291 nM
18 | COc1cccc2c1CCC1(CCN(CC3CCC3)CC1)C2=O [Example 36] |  | 3400 | 51 | Ki [3]: 475 nM
19 | COc1ccc2c(c1)CCC1(CCN(CCC3CC3)CC1)C2=O [Example 42] |  | 4300 | 46 | 
20 | COc1ccc2c(c1)CCC1(CCN(CC3CCC3)CC1)C2=O [Example 43] |  | 6000 | 39 | 
21 | COc1ccc2c(c1)CCC1(CCN(CCCc3ccccc3)CC1)C2=O [Example 47] |  | 600 | 66 | 
22 | COc1ccc2c(c1)C(=O)C1(CC2)CCN(CCC2CC2)CC1 [Example 49] |  | 7600 | 38 | Ki [3]: 2180 nM
23 | COc1ccc2c(c1)CCC1(CCNCC1)C2=O [Example 70, 3.4-Dihydro-6-methoxy-1-oxospiro[naphthalene-2(1H),4′-piperidine]] |  |  | 46 | 
